system: HCT-8; assay: Cytotoxicity against human HCT8 cells after 72 hrs by MTT assay; type: functional, cell-based; details: HCT-8, 72 h

SMILES | IC50 [µM]
CCCc1ccc2c(O)c3c(c(O)c2c1)C(=O)c1cccc(O)c1C3=O | 12.7
CCCc1ccc2c(c1)C(=O)c1cc3cccc(OC)c3cc1C2=O | > 70
CCC[C@@]1(O)CCC2=C(C1)C(=O)c1cc3cccc(OC)c3cc1C2=O | > 70
CCC[C@@]1(O)C[C@H](O)c2c(O)c3c(c(O)c2[C@H]1C(=O)OC)C(=O)c1cccc(O)c1C3=O | 6.2
COc1cccc2c1C(=O)c1c(O)c3c(c(O)c1C2=O)C[C@@](O)(C(=O)CO)C[C@@H]3O[C@H]1C[C@H](N)[C@H](O)[C@H](C)O1 [DOXORUBICIN] | 0.1

Reference: ChEMBL document CHEMBL2021875, “Anthracyclinones from Micromonospora sp” (J Nat Prod, 2012)
